The values that follow come from US5241065A, “2,3,4,5-tetrahydro-1H-3-benzazepines having anti-psychotic activity” (Schering Corporation, priority 1992, dated 1993).

Molecules are shown by their SMILES. Read-outs that look alike come from different tables or passages of the source.

In data set [1] the test system is rat. Nature of the data set: Toxicity, rat. The note with it: for Toxicity, rat: result in words, dose in mpk within the value. Format: in vivo. From the text:
The compounds of this invention are substantially non-toxic at the therapeutic close, as is shown in the following Table 4, which compares them with related reference compounds: […]

Data set [2] deals with T1, D-2 receptor (Rattus norvegicus, UniProt P61169).
T1 construct: Striatal tissue was excised, pooled, and homogenized; from tissue; host or cells: rat striatum (Sprague-Dawley), washed membrane homogenate
Nature of the data set: Competitive inhibition assay, 3H-spiperone binding to rat striatal tissue (D-2). Set-up: species or system Male Sprague-Dawley rats. The note with it: rat striatal homogenate, 0.2 nM 3H-spiperone, pH 7.4, 37° C., 15 minutes, read-out: Ki against 3H-spiperone. An excerpt: (§1) Many compounds capable of effecting reproducible physiological changes in neural tissues are believed to operate by binding at one or more receptor sites.
(§2) A methodology for characterization of binding and an interpretation of the data are described by Billard et al., Life Sciences 35, 1885 (1984) in which the binding of (R)-(+)-7-chloro-8-hydroxy-3-methyl-1-phenyl-2,3,4,5-tetrahydro-1H-3-benzazepine (SCH 23390) (as its hemi-maleate) to the dopamine D-1 receptor is characterized.
(§3) Tritiated SCH 23390 and tritiated spiperone (a potent D-2 ligand) were obtained as described in the Billard et al. reference supra and serially diluted in 0.05 M Tris buffer, pH 7.4, as required. A compound of the invention was diluted in 0.05 M Tris buffer, pH 7.4, as required.
(§4) Male Sprague-Dawley rats (200 to 250 g) from Charles River Breeding Laboratories, Mass., were used to obtain brain tissue. The rats were humanely sacrificed and their brains removed and placed on ice. Striatal tissue was excised, pooled, and homogenized (Brinkman Polytron, 10 sec) in 100 volumes (w/v) of ice cold 50 mM Tris buffer, pH 7.4 (at 25° C.). The homogenate was centrifuged at 20,000 x g for 10 min. The resulting pellet was re-homogenized in Tris buffer and centrifuged again. The final pellet was resuspended in 50 mM Tris buffer, pH 7.4 containing 120 mM NaCl, 5 mM KCl, 2 mM CaCl2, and 1 mM MgCl2.
(§5) Polypropylene incubation tubes received 100 μl of the individual test compounds at various concentrations dissolved or suspended in 0.05 M Tris buffer, pH 7.4 containing 4 mg/ml methylcellulose, 100 μl of a solution of ^3 H-SCH 23390 in Tris buffer (final reaction mixture concentration=0.3nM) or 100 μl of a solution of ^3 H-spiperone in Tris buffer (final concentration=0.2 nM) and 800 μl of tissue suspension (ca. 3 mg/assay). Tubes were incubated at 37° C. for 15 minutes and rapidly vacuum filtered through Whatman GF/B filters and rinsed 4 times with 4 ml of ice cold 50 mM Tris buffer, pH 7.4. The filters were transferred to scintillation vials, equilibrated with 10 ml of scintillant (Scintosol, Isolab, Inc.) for 16 hours at 25° C., and the radioactivity was determined in a liquid scintillation counter. Ki values were determined as described by Billard et al. using the relationship: K i =IC50 /(1+([…])) wherein IC50 =concentration of test drug necessary to displace 50% of specifically bound ^3 H-SCH 23390, [L]=concentration of radioligand used in the assay, and KD =dissociation constant.

Data set [3] relates to squirrel monkeys. Nature of the data set: Suppression of conditioned avoidance response (CAR) in squirrel monkeys. It counts as in vivo. The note with it: Saimiri, in Primates, po, read-out: Monkey CAR, minimal effective dose (MED). From the text:
This test is designed to measure the effective duration of candidate compounds.
Male or female squirrel monkeys weighing 800-1200 g housed one per cage are utilized. Initially each monkey is taught to terminate both a 3mA electric shock delivered through the grid floor of the test cage and an overlapping tone by depressing a lever in the cage.
In the second phase of the testing, a ten second tone is turned on prior to the shock component. A lever pass during the sounding of the tone terminates the tone and prevents the occurrence of the shock component and is denoted as an "avoidance".
The compound testing is commenced after three consecutive days of re-testing. […] The monkey must achieve at lest an 85% correct avoidance before drug testing commences. If this minimal avoidance level is achieved, the next day the monkey is orally dosed or injected with the subject compounds in the appropriate vehicle, and the number of avoidances are recorded. An animal is defined as having been "affected" by any drug treatment if there is a 50% loss of avoidance behavior relative to the performance of the animal when only the vehicle is injected. The minimal effective dose (MED) is defined as that dose producing an effect in at least 50% of the animals.
A test may be conducted to determine the effective duration of a compound in accordance with the present invention by comparing a compound of the invention to the known compound SCH 23390. A compound of the invention administered 60 minutes prior to the test is compared to SCH 23390 administered 30 minutes prior to test. The duration of each compound is determined by administering a 12.0 mg/kg p.o. dose six hours prior to testing.

The subject of data set [4] is rats. The experiment in a line: Conditioned avoidance response (CAR) suppression in rats. To be noted: Rattus norvegicus, read-out: Rat CAR, minimal effective dose (MED). It counts as in vivo. Here is the method:
N.Y. Acad. Sci. 66, 740 (1957)]. A series of experiments was carried out to assess the ability of the compounds of this invention to suppress the conditioned avoidance response (CAR) in rats.
Rats were required to jump onto a platform located 6.75 inches (17.15 cm) above the grid floor of an experimental chamber in response to a 5-second tone to avoid a 10-second foot shock (0.6 ma). Each experimental session consisted of 20 such trials presented at 30-second intervals. A correct CAR is scored whenever the rat jumps onto the platform during the tone (prior to foot shock). An escape response is scored when the rat jumps onto the platform during a shock. A response failure is defined as the lack of an escape response during the 10-second shock period.
Groups of 6-8 rats were trained in two consecutive days (total of 40 trials). Rats that reached criterion on day 2 (correct CARs in 16 or more of the 20 trials) were treated with either a test drug or a vehicle on day 3. Suppression of CAR was analyzed statistically using Student's t-test comparing the performances of drug-treated to vehicle-treated rats.

For data set [5], the target named is T2, dopamine D-1 receptor (Rattus norvegicus, UniProt P18901).
T2 construct: Striatal tissue was excised, pooled, and homogenized; from tissue; host or cells: rat striatum (Sprague-Dawley), washed membrane homogenate
The experiment in a line: Competitive inhibition assay, 3H-SCH 23390 binding to rat striatal tissue (dopamine D-1). The note with it: rat striatal homogenate, 0.3 nM 3H-SCH 23390, pH 7.4, 37° C., 15 minutes, read-out: Ki against 3H-SCH 23390. Details: species or system Male Sprague-Dawley rats.
Text: as §1, §2, §3, §4, §5

T1 sequence (P61169 whole entry): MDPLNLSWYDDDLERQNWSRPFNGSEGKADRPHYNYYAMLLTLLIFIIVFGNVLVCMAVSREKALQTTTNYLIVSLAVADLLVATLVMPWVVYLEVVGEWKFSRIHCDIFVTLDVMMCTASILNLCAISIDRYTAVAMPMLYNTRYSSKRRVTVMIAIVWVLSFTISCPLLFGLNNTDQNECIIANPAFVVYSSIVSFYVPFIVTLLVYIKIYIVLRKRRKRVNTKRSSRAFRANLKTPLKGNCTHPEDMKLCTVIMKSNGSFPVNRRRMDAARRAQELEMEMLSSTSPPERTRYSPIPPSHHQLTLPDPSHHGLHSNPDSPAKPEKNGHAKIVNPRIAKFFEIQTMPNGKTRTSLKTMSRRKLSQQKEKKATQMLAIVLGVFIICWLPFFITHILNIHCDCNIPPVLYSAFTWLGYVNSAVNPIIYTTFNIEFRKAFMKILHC
T2 sequence (P18901 whole entry): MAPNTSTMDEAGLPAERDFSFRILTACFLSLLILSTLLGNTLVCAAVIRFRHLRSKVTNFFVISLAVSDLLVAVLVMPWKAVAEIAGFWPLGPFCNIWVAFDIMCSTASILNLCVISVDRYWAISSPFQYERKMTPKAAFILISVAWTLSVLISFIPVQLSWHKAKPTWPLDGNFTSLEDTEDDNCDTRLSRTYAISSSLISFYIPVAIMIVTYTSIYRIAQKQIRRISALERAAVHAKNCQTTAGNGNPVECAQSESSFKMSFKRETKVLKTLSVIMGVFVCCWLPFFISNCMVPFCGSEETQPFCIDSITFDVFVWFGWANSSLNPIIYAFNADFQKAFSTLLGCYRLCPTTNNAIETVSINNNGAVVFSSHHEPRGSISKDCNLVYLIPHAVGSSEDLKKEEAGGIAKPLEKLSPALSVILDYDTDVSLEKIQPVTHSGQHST

Broadly, the Ki is a measure of affinity in units of concentration, obtained from inhibition or displacement. Usually minimal effective dose stands for the smallest amount tested that counted as effective. As for `Cc1cc2c(cc1O)C(C1=CCCCC1)CN(C)CC2` (racemic) [A, (R,S)-1-(1-cyclohexenyl)-8-hydroxy-3,7-dimethyl-2,3,4,5-tetrahydro-1H-3-benzazepine, reference compound], the “Toxicity, rat: salivation” value in data set [1] (10 mpk po, after 1 hour) was “salivation in 1 of 3 rats”. Also, the values for the Ki in data set [2] and in data set [5] were 1880 nM and 8.7 nM, respectively. The minimal effective dose in data set [3] was 3 mg/kg; in data set [3] (at 1 hour), 10 mg/kg; in data set [4] (po (per oral)), greater than 30 mg/kg.
Consider `CC1=C(C2CN(C)CCc3cc(Cl)c(O)cc32)CCC1` (racemic) [G, (R,S)-7-chloro-8-hydroxy-3-methyl-(2-methyl-1-cyclopentenyl)-2,3,4,5-tetrahydro-1H-3-benzazepine], for which the “Toxicity, rat” value in data set [1] is reported as “Non-toxic at 300 mpk”. Further, the Ki was 656 nM in data set [2] and 0.27 nM in data set [5]. Besides, the minimal effective dose in data set [3] came out at 5 mg/kg; in data set [3] (at 6 hours) it was 20 mg/kg; in data set [4] (po (per oral)) it was 10 mg/kg; in data set [4] (po, at 6 hours), 50 mg/kg; in data set [4] (sc (subcutaneous)), 0.01 mg/kg.
Turning to `CN1CCc2cc(Cl)c(O)cc2C(C2=CCCCC2)C1` (racemic) [K, (R,S)-7-chloro-1-(1-cyclohexenyl)-8-hydroxy-3-methyl-2,3,4,5-tetrahydro-1H-3-benzazepine], the Ki in data set [2] was determined as 1440 nM; in data set [5], 2.2 nM.
`CC1=C(C2CN(C)CCc3cc(Cl)c(O)cc32)CCCC1` (racemic) [N, (R,S)-7-chloro-8-hydroxy-3-methyl-1-(2-methyl-1-cyclohexenyl)-2,3,4,5-tetrahydro-1H-3-benzazepine]: the figures for the Ki in data set [2] and in data set [5] were 420 nM and 0.83 nM, respectively. Further, the minimal effective dose in data set [4] (po (per oral)) is 30 mg/kg.
On to `CN1CCc2cc(Cl)c(O)cc2C(C2=CCCC2)C1` (racemic) [Q, (R,S)-7-chloro-1-(1-cyclopentenyl)-8-hydroxy-3-methyl-2,3,4,5-tetrahydro-1H-3-benzazepine], for which the figures for the Ki in data set [2] and in data set [5] were 595 nM and 2.3 nM, respectively.
Take `Cc1cc2c(cc1O)[C@H](C1=CCCCC1)CN(C)CC2` [B, (S)-1-(1-cyclohexenyl)-8-hydroxy-3,7-dimethyl-2,3,4,5-tetrahydro-1H-3-benzazepine, reference compound]: the Ki in data set [2] is 4370 nM; in data set [5], 101 nM. Further, the minimal effective dose in data set [4] (po (per oral)) is greater than 30 mg/kg.
`Cc1cc2c(cc1O)[C@@H](C1=CCCCC1)CN(C)CC2` [C, (R)-1-(1-cyclohexenyl)-8-hydroxy-3,7-dimethyl-2,3,4,5-tetrahydro-1H-3-benzazepine, reference compound]: the figures for the inhibition constant (Ki) in data set [2] and in data set [5] were 1670 nM and 4 nM, respectively. The minimal effective dose in data set [4] (sc (subcutaneous)) is 0.1 mg/kg.
For `CN1CCc2cc(Cl)c(O)cc2C(C2CCCC2)C1` (stereo not drawn) [D, reference compound], the figures for the minimal effective dose in data set [4] (po (per oral)) and in data set [4] (sc (subcutaneous)) were greater than 30 mg/kg and 3 mg/kg, respectively.
With `Cc1cc2c(cc1O)C(C1CCCCC1)CN(C)CC2` (stereo not drawn) [E, reference compound], the “Toxicity, rat” value in data set [1] is on record as “Lethal at 300 mpk”. The Ki came to 3610 nM in data set [2] and 48 nM in data set [5]. The minimal effective dose in data set [4] (po (per oral)) stood at 10 mg/kg; in data set [4] (sc (subcutaneous)), 3 mg/kg.
For the compound `Cc1cc2c(cc1O)C(C1CCCC1)CN(C)CC2` (stereo not drawn) [F, reference compound], in data set [1], the “Toxicity, rat” value was “Lethal at 300 mpk”. For the same compound, the Ki in data set [2] came to 1050 nM; in data set [5], 44 nM.
As to `CC1=C([C@H]2CN(C)CCc3cc(Cl)c(O)cc32)CCC1` [H, (R)-7-chloro-8-hydroxy-3-methyl-1-(2-methyl-1-cyclopentenyl)-2,3,4,5-tetrahydro-1H-3-benzazepine], in data set [1], the “Toxicity, rat” value is given as “Non-toxic at 150 mpk”. The Ki in data set [2] amounted to 358 nM; in data set [5], 0.43 nM. Besides, the minimal effective dose was found to be 2 mg/kg in data set [3]; 10 mg/kg in data set [3] (at 4 hours); 5 mg/kg in data set [4] (po (per oral)); 25 mg/kg in data set [4] (po, at 6 hours).
`CC1=C([C@@H]2CN(C)CCc3cc(Cl)c(O)cc32)CCC1` [J, (S)-7-chloro-8-hydroxy-3-methyl-1-(2-methyl-1-cyclopentenyl)-2,3,4,5-tetrahydro-1H-3-benzazepine]: the Ki in data set [2] worked out at 3690 nM; in data set [5], 15 nM. In data set [4] (po (per oral)), the minimal effective dose was greater than 30 mg/kg.
Regarding `CN1CCc2cc(Cl)c(O)cc2[C@H](C2=CCCCC2)C1` [L, (S)-7-chloro-1-(1-cyclohexenyl)-8-hydroxy-3-methyl-2,3,4,5-tetrahydro-1H-3-benzazepine], the Ki in data set [2] is 2080 nM; in data set [5] it was 23 nM. In data set [4] (po (per oral)), the minimal effective dose is greater than 30 mg/kg.
For the compound `CN1CCc2cc(Cl)c(O)cc2[C@@H](C2=CCCCC2)C1` [M, (R)-7-chloro-1-(1-cyclohexenyl)-8-hydroxy-3-methyl-2,3,4,5-tetrahydro-1H-3-benzazepine], the “Toxicity, rat” value in data set [1] is “Secretions at 300 mpk”. Further, the results for the Ki in data set [2] and in data set [5] were 1090 nM and 0.87 nM, respectively. Besides, in data set [4] (po (per oral)), the minimal effective dose worked out at 10 mg/kg.
In the case of `CC(C)=C(C)C1CN(C)CCc2cc(Cl)c(O)cc21` (stereo not drawn) [P], the Ki in data set [2] is 554 nM; in data set [5], 2.8 nM. Also, in data set [4] (po (per oral)), the minimal effective dose worked out at 10 mg/kg.
